In patent US20070117743A1, “New antitumoral compounds” (priority 2003, published 2007):
Where a SMILES comes first, the peptide text is derived from it. Bridges are numbered along the chain shown (N, C = ends). [ ]: non-standard residue; d: D form. The star is where a group is joined. Bip = N[C@@H](Cc1ccc(-c2ccccc2)cc1)C(=O)O; 2Nal = N[C@@H](Cc1ccc2ccccc2c1)C(=O)O; d(aIle) = CC[C@H](C)[C@@H](N)C(=O)O; d(aThr) = C[C@@H](O)[C@@H](N)C(=O)O; Hexanoyl(5-Me) = CC(C)CCCC(=O)*; Phg = N[C@H](C(=O)O)c1ccccc1; Orn = NCCC[C@H](N)C(=O)O; Dhb = C/C=C(\N)C(=O)O

How the values were obtained:
Assay type in all cases: cell-based, human
[1] = system: HT-29; experiment: SRB colorimetric assay of cell growth and viability, HT-29; conditions: HT-29, 48 hours exposure; for GI50: read-out: GI50 HT-29; for CC50: read-out: LC50 HT-29
[2] = system: SK-MEL-28; experiment: SRB colorimetric assay of cell growth and viability, SK-MEL-28; conditions: MEL-28, 48 hours exposure; for CC50: read-out: LC50 MEL-28
[3] = system: IGROV-ET; experiment: SRB colorimetric assay of cell growth and viability, IGROV-ET; conditions: IGROV-ET, 48 hours exposure; for CC50: read-out: LC50 IGROV-ET
[4] = system: DU-145; experiment: SRB colorimetric assay of cell growth and viability, DU-145; conditions: DU-145; 48 hours exposure
[5] = system: HeLa-APL; experiment: SRB colorimetric assay of cell growth and viability, HeLa-APL; conditions: HELA-APL, 48 hours exposure; for CC50: read-out: LC50 HELA-APL
[6] = system: LoVo; experiment: SRB colorimetric assay of cell growth and viability, LoVo; conditions: LOVO, 48 hours exposure; for CC50: read-out: LC50 LOVO
[7] = system: PANC-1; experiment: SRB colorimetric assay of cell growth and viability, PANC-1; conditions: PANC-1, 48 hours exposure; for CC50: read-out: LC50 PANC-1
[8] = system: LoVo-Dox; experiment: SRB colorimetric assay of cell growth and viability, LoVo-Dox; conditions: LOVO-DOX, 48 hours exposure; for CC50: read-out: LC50 LOVO-DOX
In short: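 Sulforhodamine B assay run after 48 h of continuous drug contact; cells seeded 5×10^3/well in RPMI 1640 10% FBS, attached 18 h. Triplicate OD490 values give cytostatic (TGI), cytotoxic (LC) and GI parameters.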

[9] = system: IGROV-1; experiment: SRB colorimetric assay of cell growth and viability, IGROV-1; conditions: IGROV; 48 hours exposure
[10] = system: K-562; experiment: SRB colorimetric assay of cell growth and viability, K-562; conditions: K-562, 48 hours exposure; for CC50: read-out: LC50 K-562
[11] = system: HeLa; experiment: SRB colorimetric assay of cell growth and viability, HeLa; conditions: HELA, 48 hours exposure; for CC50: read-out: LC50 HELA
[12] = system: A-549; experiment: SRB colorimetric assay of cell growth and viability, A-549; conditions: A-549, 48 hours exposure; for GI50: read-out: GI50 A-549; for CC50: read-out: LC50 A-549
[13] = system: SK-BR-3; experiment: SRB colorimetric assay of cell growth and viability, SK-BR-3; conditions: SK-BR-3; 48 hours exposure

| SMILES | TGI HT-29 [1] | GI50 [1] | CC50 [1] | GI50 [2] | TGI MEL-28 [2] | CC50 [2] | GI50 [3] | TGI IGROV-ET [3] | CC50 [3] | GI50 [4] | LC50 (concentration causing 50% net cell kill) [4] | TGI DU-145 [4] | GI50 [5] | TGI HELA-APL [5] | CC50 [5] | GI50 [6] | TGI LOVO [6] | CC50 [6] | GI50 [7] | TGI PANC-1 [7] | other results |
| --- | --- | --- | --- | --- | --- | --- | --- | --- | --- | --- | --- | --- | --- | --- | --- | --- | --- | --- | --- | --- | --- |
| C/C=C1\NC(=O)[C@H](Cc2ccc3ccccc3c2)NC(=O)[C@@H](C(C)C)NC(=O)[C@@H]([C@@H](C)CC)NC(=O)[C@H](NC(=O)[C@H](NC(=O)[C@H](CCCN)NC(=O)[C@H]2CCCN2C(=O)[C@H](NC(=O)[C@@H](NC(=O)[C@@H](NC(=O)[C@H](NC(=O)CCCC(C)C)C(C)C)[C@@H](C)O)C(C)C)C(C)C)[C@@H](C)CC)[C@@H](C)OC(=O)[C@H](C(C)C)NC1=O [Compound 85, [Nal^3]-KF] ({Hexanoyl(5-Me)}-[dV]TV[dV][dP][Orn][d(aIle)][d(aThr)][d(aIle)][dV][2Nal][Dhb]V; ester 8-C) | 1.16E−07 Molar | 73.1 nM | 278 nM | 230 nM | 3.64E−07 Molar | 579 nM | 74.3 nM | 1.44E−07 Molar | 425 nM | 111 nM | 488 nM | 2.53E−07 Molar | 90.7 nM | 1.91E−07 Molar | 427 nM | 32.8 nM | 8.16E−08 Molar | 192 nM | 694 nM | 1.04E−06 Molar | CC50 [7]: 1570 nM; GI50 [8]: 37 nM; TGI LOVO-DOX [8]: 8.77E−08 Molar; CC50 [8]: 847 nM; GI50 [9]: 49.8 nM; LC50 (concentration causing 50% net cell killing) [9]: 169 nM; TGI IGROV [9]: 9.81E−08 Molar; GI50 [10]: 301 nM; TGI K-562 [10]: 7.13E−07 Molar; CC50 [10]: 1380 nM; GI50 [11]: 78.6 nM; TGI HELA [11]: 1.94E−07 Molar; CC50 [11]: 462 nM; TGI A-549 [12]: 3.39E−07 Molar; GI50 [12]: 192 nM; CC50 [12]: 599 nM; GI50 [13]: 37.1 nM; LC50 [13]: 170 nM; TGI SK-BR-3 [13]: 5.80E−08 Molar |
| C/C=C1\NC(=O)[C@H](Cc2ccc(-c3ccccc3)cc2)NC(=O)[C@@H](C(C)C)NC(=O)[C@@H]([C@@H](C)CC)NC(=O)[C@H](NC(=O)[C@H](NC(=O)[C@H](CCCN)NC(=O)[C@H]2CCCN2C(=O)[C@H](NC(=O)[C@@H](NC(=O)[C@@H](NC(=O)[C@H](NC(=O)CCCC(C)C)C(C)C)[C@@H](C)O)C(C)C)C(C)C)[C@@H](C)CC)[C@@H](C)OC(=O)[C@H](C(C)C)NC1=O [Compound 86, [Bip^3]-KF] ({Hexanoyl(5-Me)}-[dV]TV[dV][dP][Orn][d(aIle)][d(aThr)][d(aIle)][dV][Bip][Dhb]V; ester 8-C) | 3.73E−07 Molar | 129 nM | 5070 nM | 183 nM | 4.11E−07 Molar | 2480 nM | 150 nM | 1.00E−06 Molar | ≥ 6430 nM | 124 nM | 527 nM | 2.56E−07 Molar | 424 nM | 1.65E−06 Molar | 6070 nM | 63.7 nM | 2.89E−07 Molar | 4680 nM | 984 nM | 2.17E−06 Molar | CC50 [7]: 4770 nM; GI50 [8]: 73.3 nM; TGI LOVO-DOX [8]: 2.69E−07 Molar; CC50 [8]: ≥ 6430 nM; GI50 [9]: 181 nM; LC50 (concentration causing 50% net cell killing) [9]: ≥ 6430 nM; TGI IGROV [9]: 5.23E−07 Molar; GI50 [10]: 1100 nM; TGI K-562 [10]: 2.32E−06 Molar; CC50 [10]: 4870 nM; GI50 [11]: 177 nM; TGI HELA [11]: 8.17E−07 Molar; CC50 [11]: 3900 nM; TGI A-549 [12]: 2.87E−07 Molar; GI50 [12]: 125 nM; CC50 [12]: 810 nM; GI50 [13]: 28.9 nM; LC50 [13]: 5070 nM; TGI SK-BR-3 [13]: 1.79E−07 Molar |
| C/C=C1\NC(=O)[C@H](c2ccccc2)NC(=O)[C@@H](C(C)C)NC(=O)[C@@H]([C@@H](C)CC)NC(=O)[C@H](NC(=O)[C@H](NC(=O)[C@H](CCCN)NC(=O)[C@H]2CCCN2C(=O)[C@H](NC(=O)[C@@H](NC(=O)[C@@H](NC(=O)[C@H](NC(=O)CCCC(C)C)C(C)C)[C@@H](C)O)C(C)C)C(C)C)[C@@H](C)CC)[C@@H](C)OC(=O)[C@H](C(C)C)NC1=O [Compound 87, [Phg^3]-KF] ({Hexanoyl(5-Me)}-[dV]TV[dV][dP][Orn][d(aIle)][d(aThr)][d(aIle)][dV][Phg][Dhb]V; ester 8-C) | 1.90E−06 Molar | 1580 nM | 1900 nM | 1900 nM | 1.90E−06 Molar | 1900 nM | 1290 nM | 1.90E−06 Molar | 1900 nM | 1900 nM | 1900 nM | 1.90E−06 Molar | 1900 nM | 1.90E−06 Molar | 1900 nM | 957 nM | 1.90E−06 Molar | 1900 nM | 1900 nM | 1.90E−06 Molar | CC50 [7]: 1900 nM; GI50 [8]: 513 nM; TGI LOVO-DOX [8]: 1.32E−06 Molar; CC50 [8]: 1900 nM; GI50 [9]: 919 nM; LC50 (concentration causing 50% net cell killing) [9]: 1900 nM; TGI IGROV [9]: 1.90E−06 Molar; GI50 [10]: 1900 nM; TGI K-562 [10]: 1.90E−06 Molar; CC50 [10]: 1900 nM; GI50 [11]: 1900 nM; TGI HELA [11]: 1.90E−06 Molar; CC50 [11]: 1900 nM; TGI A-549 [12]: 1.90E−06 Molar; GI50 [12]: 1900 nM; CC50 [12]: 1900 nM; GI50 [13]: 748 nM; LC50 [13]: 1870 nM; TGI SK-BR-3 [13]: 1.19E−06 Molar |
